Results taken from paper PMC9823097, “Dysregulation of PRMT5 in chronic lymphocytic leukemia promotes progression with high risk of Richter’s transformation” (Nature Communications, 2023).

How the values were obtained:
Mec-1 cells = assay: Cell growth curves over 12 days, Mec-1; format: cell-based; conditions: for anti-proliferative potency compared to PRT382: Mec-1
Protocol: (§1) Live cells/mL were counted on days 3, 6, 10, and 12. […] The split factor was calculated at indicated time points by dividing the counted cells/mL by 3E5. Cell growth was extrapolated over time by multiplying the subsequent cell count by the previous split factor. Cell growth is plotted as fold change relative to DMSO-treated cells.

HG3 cells = assay: Cell growth curves over 12 days, HG3; format: cell-based; conditions: for anti-proliferative potency compared to PRT382: HG3
Protocol: as §1

## Nc1ncnc2c1ccn2[C@@H]1O[C@H]([C@H](O)c2ccccc2)[C@@H](O)[C@H]1O [LLY-283]
Mec-1 cells; Mec-1, 1 nM, day 0
  Rep 1 Live Cells [Fold Change]: 1 Fold Change
  Rep 2 Live Cells [Fold Change]: 1 Fold Change
Mec-1 cells; Mec-1, 1 nM, day 3
  Rep 1 Live Cells [Fold Change]: 7.4 Fold Change
  Rep 2 Live Cells [Fold Change]: 6.83 Fold Change
Mec-1 cells; Mec-1, 1 nM, day 6
  Rep 1 Live Cells [Fold Change]: 50.6 Fold Change
  Rep 2 Live Cells [Fold Change]: 41.9 Fold Change
Mec-1 cells; Mec-1, 1 nM, day 10
  Rep 1 Live Cells [Fold Change]: 397 Fold Change
  Rep 2 Live Cells [Fold Change]: 446 Fold Change
Mec-1 cells; Mec-1, 1 nM, day 12
  Rep 1 Live Cells [Fold Change]: 1480 Fold Change
  Rep 2 Live Cells [Fold Change]: 1580 Fold Change
Mec-1 cells; Mec-1, 10 nM, day 0
  Rep 1 Live Cells [Fold Change]: 1 Fold Change
  Rep 2 Live Cells [Fold Change]: 1 Fold Change
Mec-1 cells; Mec-1, 10 nM, day 3
  Rep 1 Live Cells [Fold Change]: 6.77 Fold Change
  Rep 2 Live Cells [Fold Change]: 6.33 Fold Change
Mec-1 cells; Mec-1, 10 nM, day 6
  Rep 1 Live Cells [Fold Change]: 30.7 Fold Change
  Rep 2 Live Cells [Fold Change]: 34 Fold Change
Mec-1 cells; Mec-1, 10 nM, day 10
  Rep 1 Live Cells [Fold Change]: 156 Fold Change
  Rep 2 Live Cells [Fold Change]: 260 Fold Change
Mec-1 cells; Mec-1, 10 nM, day 12
  Rep 1 Live Cells [Fold Change]: 568 Fold Change
  Rep 2 Live Cells [Fold Change]: 278 Fold Change
Mec-1 cells; Mec-1, 100 nM, day 0
  Rep 1 Live Cells [Fold Change]: 1 Fold Change
  Rep 2 Live Cells [Fold Change]: 1 Fold Change
Mec-1 cells; Mec-1, 100 nM, day 3
  Rep 1 Live Cells [Fold Change]: 4.6 Fold Change
  Rep 2 Live Cells [Fold Change]: 4.47 Fold Change
Mec-1 cells; Mec-1, 100 nM, day 6
  Rep 1 Live Cells [Fold Change]: 6.46 Fold Change
  Rep 2 Live Cells [Fold Change]: 5.94 Fold Change
Mec-1 cells; Mec-1, 100 nM, day 10
  Rep 1 Live Cells [Fold Change]: 4.1 Fold Change
  Rep 2 Live Cells [Fold Change]: 4.16 Fold Change
Mec-1 cells; Mec-1, 100 nM, day 12
  Rep 1 Live Cells [Fold Change]: 2.4 Fold Change
  Rep 2 Live Cells [Fold Change]: 2.8 Fold Change
Mec-1 cells; Mec-1, 1 µM, day 0
  Rep 1 Live Cells [Fold Change]: 1 Fold Change
  Rep 2 Live Cells [Fold Change]: 1 Fold Change
Mec-1 cells; Mec-1, 1 µM, day 3
  Rep 1 Live Cells [Fold Change]: 3.67 Fold Change
  Rep 2 Live Cells [Fold Change]: 4.57 Fold Change
Mec-1 cells; Mec-1, 1 µM, day 6
  Rep 1 Live Cells [Fold Change]: 4.12 Fold Change
  Rep 2 Live Cells [Fold Change]: 5.92 Fold Change
Mec-1 cells; Mec-1, 1 µM, day 10
  Rep 1 Live Cells [Fold Change]: 2.43 Fold Change
  Rep 2 Live Cells [Fold Change]: 2.13 Fold Change
Mec-1 cells; Mec-1, 1 µM, day 12
  Rep 1 Live Cells [Fold Change]: 1.89 Fold Change
  Rep 2 Live Cells [Fold Change]: 1.46 Fold Change
Mec-1 cells; high doses (1µM)
  anti-proliferative potency compared to PRT382: similar
Mec-1 cells; lower doses (10nM, 100nM)
  anti-proliferative potency compared to PRT382: more potent
HG3 cells; HG3, 1 nM, day 0
  Rep 1 Live Cells [Fold Change]: 1 Fold Change
  Rep 2 Live Cells [Fold Change]: 1 Fold Change
HG3 cells; HG3, 1 nM, day 3
  Rep 1 Live Cells [Fold Change]: 6.4 Fold Change
  Rep 2 Live Cells [Fold Change]: 6.4 Fold Change
HG3 cells; HG3, 1 nM, day 6
  Rep 1 Live Cells [Fold Change]: 45.44 Fold Change
  Rep 2 Live Cells [Fold Change]: 39.4667 Fold Change
HG3 cells; HG3, 1 nM, day 10
  Rep 1 Live Cells [Fold Change]: 270.368 Fold Change
  Rep 2 Live Cells [Fold Change]: 299.947 Fold Change
HG3 cells; HG3, 1 nM, day 12
  Rep 1 Live Cells [Fold Change]: 973.325 Fold Change
  Rep 2 Live Cells [Fold Change]: 1379.76 Fold Change
HG3 cells; HG3, 10 nM, day 0
  Rep 1 Live Cells [Fold Change]: 1 Fold Change
  Rep 2 Live Cells [Fold Change]: 1 Fold Change
HG3 cells; HG3, 10 nM, day 3
  Rep 1 Live Cells [Fold Change]: 6.167 Fold Change
  Rep 2 Live Cells [Fold Change]: 6.2 Fold Change
HG3 cells; HG3, 10 nM, day 6
  Rep 1 Live Cells [Fold Change]: 34.3278 Fold Change
  Rep 2 Live Cells [Fold Change]: 39.4733 Fold Change
HG3 cells; HG3, 10 nM, day 10
  Rep 1 Live Cells [Fold Change]: 260.891 Fold Change
  Rep 2 Live Cells [Fold Change]: 335.523 Fold Change
HG3 cells; HG3, 10 nM, day 12
  Rep 1 Live Cells [Fold Change]: 755.715 Fold Change
  Rep 2 Live Cells [Fold Change]: 1174.33 Fold Change
HG3 cells; HG3, 100 nM, day 0
  Rep 1 Live Cells [Fold Change]: 1 Fold Change
  Rep 2 Live Cells [Fold Change]: 1 Fold Change
HG3 cells; HG3, 100 nM, day 3
  Rep 1 Live Cells [Fold Change]: 5.133 Fold Change
  Rep 2 Live Cells [Fold Change]: 5.6 Fold Change
HG3 cells; HG3, 100 nM, day 6
  Rep 1 Live Cells [Fold Change]: 5.048 Fold Change
  Rep 2 Live Cells [Fold Change]: 7.691 Fold Change
HG3 cells; HG3, 100 nM, day 10
  Rep 1 Live Cells [Fold Change]: 6.991 Fold Change
  Rep 2 Live Cells [Fold Change]: 12.0359 Fold Change
HG3 cells; HG3, 100 nM, day 12
  Rep 1 Live Cells [Fold Change]: 6.651 Fold Change
  Rep 2 Live Cells [Fold Change]: 12.2598 Fold Change
HG3 cells; HG3, 1 µM, day 0
  Rep 1 Live Cells [Fold Change]: 1 Fold Change
  Rep 2 Live Cells [Fold Change]: 1 Fold Change
HG3 cells; HG3, 1 µM, day 3
  Rep 1 Live Cells [Fold Change]: 4.533 Fold Change
  Rep 2 Live Cells [Fold Change]: 5.967 Fold Change
HG3 cells; HG3, 1 µM, day 6
  Rep 1 Live Cells [Fold Change]: 3.083 Fold Change
  Rep 2 Live Cells [Fold Change]: 6.961 Fold Change
HG3 cells; HG3, 1 µM, day 10
  Rep 1 Live Cells [Fold Change]: 2.4 Fold Change
  Rep 2 Live Cells [Fold Change]: 7.031 Fold Change
HG3 cells; HG3, 1 µM, day 12
  Rep 1 Live Cells [Fold Change]: 1.832 Fold Change
  Rep 2 Live Cells [Fold Change]: 4.873 Fold Change
HG3 cells; high doses (1µM)
  anti-proliferative potency compared to PRT382: similar
HG3 cells; lower doses (10nM, 100nM)
  anti-proliferative potency compared to PRT382: more potent
